Reference: patent US20090186832A1 (priority 2008, published 2009)
Structures can show the parent of a compound that is named as a salt. Where two headings read alike, the source gives them in different places.

What was measured:
[1] = dog, in vivo, po
in vivo [2] = details: beagle, dog, po, 1 mg, Meptazinol AUCt
in vivo [3] = details: dog
[4] = dog, in vivo
[5] = cited from earlier work

## CCC1(c2cccc(O)c2)CCCCN(C)C1 (centres unmarked) [Meptazinol HCl]
[1]
  AUC (mean ngh/mL ± SD): 15.6 ± 7.4
In vivo [2]
  AUC(0-t): 5.87 ng·h/mL

## CC(C)[C@H](NC(=O)Oc1ccc2c3c1OC1C(=O)CC[C@@]4(O)[C@@H](C2)N(C)CC[C@]314)C(=O)O (stereo partly drawn) [Oxymorphone valine carbamate HCl, (S)-2-[(4,5-Epoxy-14-hydroxy-17-methylmorphinan-6-one-3-yl)-oxycarbonylamino]-3-methylbutanoic acid Hydrochloride]
In vivo [3]; Beagle, po, 0.5 mg, Oxymorphone valine carbamate AUC
  AUC: 234 ng·h/mL
In vivo [3]; Beagle, po, 0.5 mg, Oxymorphone valine carbamate AUCt
  AUC(0-t): 232 ng·h/mL
In vivo [3]; Beagle, po, 0.5 mg, Oxymorphone valine carbamate Cmax
  Cmax: 75 ng/mL
[4]; Beagle, 0.5 mg/kg
  Mean relative bioavailability %: 816%
[4]; Beagle, po, 0.5 mg/kg
  Cmax (mean ng/mL ± SD): 21.6 ± 7.2 ng/mL
[4]; beagle, po
  plasma levels of the prodrug relative to the drug itself: approx. 4 fold
[4]; po
  AUC (mean ngh/mL ± SD): 94.4 ± 33.3
  time for which plasma drug levels were maintained above 50% of Cmax, prodrug vs drug itself: almost twice as long

## CN1CC[C@]23c4c5ccc(O)c4O[C@H]2C(=O)CC[C@@]3(O)[C@H]1C5 [oxymorphone, 14-hydroxydihydromorphinone]
In vivo [3]; iv, intravenous AUC value
  AUC: 146 ng·h/mL
[5]; Adams and Ahdieh (2005)
  half life: ~7 h
[5]; Opana FDA labeling
  food effect: increase of Cmax values: ≤ 38%
[5]; Sloan et al. (2005)
  absolute oral bioavailability: 10%
